From patent US11274101B2, “Heterocyclic compound” (Takeda Pharmaceutical Company Limited, priority 2017, dated 2022)

Tests used:
[1] = target: T1, His-hMAGL (recombinant polyhistidine tagged human MAGL protein) (Homo sapiens, UniProt Q99685); assay: Measurement of MAGL inhibitory activity (arachidonic acid production from 2-arachidonylglycerol, RapidFire-mass spectrometry); format: biochemical; conditions: test compound 10 μM; MAGL inhibitory rate
T1 construct: made in house; host or cells: E. coli BL21(DE3)
T1 sequence (Q99685 1-303): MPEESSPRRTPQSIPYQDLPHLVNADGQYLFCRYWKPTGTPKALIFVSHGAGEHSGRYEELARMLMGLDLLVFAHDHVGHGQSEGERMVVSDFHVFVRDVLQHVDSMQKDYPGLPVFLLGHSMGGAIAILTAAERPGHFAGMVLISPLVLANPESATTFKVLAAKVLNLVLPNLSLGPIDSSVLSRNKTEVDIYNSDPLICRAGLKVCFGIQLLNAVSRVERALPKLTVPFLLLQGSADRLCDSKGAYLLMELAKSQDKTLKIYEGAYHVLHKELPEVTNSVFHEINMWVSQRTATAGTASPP

[2] = tested on: intracerebral 2-AG and arachidonic acid; assay: Measurement of intracerebral 2-AG and arachidonic acid concentrations after oral administration; format: in vivo, mouse (C57BL/6J); conditions: for 2-AG concentration / arachidonic acid concentration: male C57BL/6J mice, 1 mg/kg by gavage, cerebrum isolated 1 hour after administration; for 2-AG concentration: control 13.5; for arachidonic acid concentration: control 203.1; for intracerebral 2-AG concentration compared to control / intracerebral arachidonic acid concentration compared to control / migration into brain: oral administration to C57BL/6J mice
Description: As the mouse, 8-week-old male C57BL/6J mice (CLEA Japan, Inc.) were used (6 mice/group). Administration solutions were prepared by suspending the test compounds (compound 1 (compound of Example 16), compound 2 (compound of Example 18) and compound 3 (compound of Example 46)) in 0.5% methylcellulose solution (Wako Pure Chemical Industries, Ltd.). The dose of the test compound was prepared to be 1 mg/kg body weight/10 mL. The test compounds were administered by gavage at 1 mg/kg body weight. The cerebrum was isolated after the administration of the test compound (isolation time after the administration of the test compound is shown in Table 3), and the cerebrum hemisphere was extracted. The obtained cerebrum hemisphere was frozen on dry ice, and the frozen tissue weight was measured.
The cerebral tissue was homogenized with 4-fold (v/w) of isopropanol (IPA), and double diluted with IPA. To the diluted sample (200 μL) was added internal standard solution (5 μL) ([5,6,8,9,11,12,14,15-D8]-(5Z,8Z,11Z,14Z)-5,8,11,14-eicosatetraenoic acid (AA-d8, 0.5 nmol/mL IPA) and [5,6,8,9,11,12,14,15-D8]-(5Z,8Z,11Z,14Z)-5,8,11,14-eicosatetraenoyl-2-glycerol ester (2-AG-d8, 0.5 nmol/mL IPA)), and the mixture was centrifuged at 15000 rpm for 5 min. The supernatant was injected to liquid chromatography mass spectrometer for quantitative analysis.
For liquid chromatography, Shimadzu LC20A system (Shimadzu Corporation) was used. The separation was performed by gradient elution method with mobile phase A (10 mmol/L HCOONH4/HCOOH (100:0.2, v/v)) and mobile phase B (ethanol/IPA (3:2, v/v)) using Shim-pack XR-ODS (2.2 μm, 2.0×30 mm, Shimadzu Corporation) at column temperature of 50° C., at flow rate of 0.5 mL/min. The gradient conditions are as follows: 0-1 min, 1% B; 1-1.2 min, 1-55% B; 1.2-2.7 min, 55-75% B; 2.7-3.5 min, 75-99% B; 3.5-6 min, 99% B; 6-8 min, 1% B.
For mass spectrometer, API5000 (AB SCIEX) was used. The eluate from the liquid chromatography was directly ionized by turbospray ionization method, where (5Z,8Z,11Z,14Z)5,8,11,14-eicosatetraenoic acid (AA) and AA-ds were measured by negative ionization mode, and (5Z,8Z,11Z,14Z)5,8,11,14-eicosatetraenoyl-2-glycerol ester (2-AG) and 2-AG-d8 were measured by positive ionization mode.
A solution for calibration curve was prepared to the concentration of 2, 5, 10, 20, 50, 100, 200, 500, 1000 nmol/mL of acetonitrile. These solutions (10 μL) was mixed with 200 μL of IPA and 5 μL of internal standard solution, and the mixture was centrifuged at 15000 rpm for 5 min, and the supernatant was injected to liquid chromatography mass spectrometer. Liner regression with 1/x^2 weighting was used for the calibration curve fitting, and the quantitativity was confirmed by accuracy of 100±20% and R^2>0.99.

inhibition at 10 µM [1] [%] | migration into brain [2] | Compound | 2-AG concentration [2] [nmol/g] | arachidonic acid concentration [2] [nmol/g] | intracerebral 2-AG concentration compared to control [2] | intracerebral arachidonic acid concentration compared to control [2]
102 | migrated into brain | O=C1NC2(CO1)CN(C(=O)O[C@H]1C[C@@H](COc3c(F)cc(F)cc3F)C1)C2 [Example 18, cis-3-((2,4,6-trifluorophenoxy)methyl)cyclobutyl 6-oxo-7-oxa-2,5-diazaspiro[3.4]octane-2-carboxylate] | 128.7 | 84.3 | increased | decreased
102 | migrated into brain | O=C1NC2(CO1)CN(C(=O)O[C@H]1C[C@@H](Oc3c(F)cc(F)cc3F)C1)C2 [Example 46, cis-3-(2,4,6-trifluorophenoxy)cyclobutyl 6-oxo-7-oxa-2,5-diazaspiro[3.4]octane-2-carboxylate] | 79.0 | 138.0 | increased | decreased
100 | migrated into brain | O=C1NC2(CO1)CN(C(=O)O[C@H]1C[C@@H](COc3ccc(F)c(F)c3F)C1)C2 [Example 16, cis-3-((2,3,4-trifluorophenoxy)methyl)cyclobutyl 6-oxo-7-oxa-2,5-diazaspiro[3.4]octane-2-carboxylate] | 82.3 | 119.8 | increased | decreased
